Results from patent US20210361539A1, “NONAQUEOUS COMPOSITION FOR EXTERNAL USE ON SKIN AND METHOD FOR PRODUCING THE SAME” (CHANEL PARFUMS BEAUTE, priority 2017, published 2021).

Assay: Particle size measurement by dynamic light scattering
Assay type: physicochemical
Conditions: steps (a) to (e) without palmitoyl-L-carnitine chloride
Protocol: The particle size of particles contained in the nonaqueous composition for external use on the skin immediately after preparation was measured by the dynamic light scattering method.
Specifically, the measurement was performed on the number mode using a nanoparticle analysis system (Zetasizer Nano ZSP model manufactured by Malvern Instruments Ltd.).

Particle size of composition containing particles of the surfactant alone: about 2.5 nm
Substance: sucrose erucic acid ester
